Consider two compounds from PMC10254444, “Targeting Myeloperoxidase Activity and Neutrophil ROS Production to Modulate Redox Process: Effect of Ellagic Acid and Analogues” (Molecules, 2023).

Entries after “also recorded” stand apart in the source; their conditions may differ.

In experiment [1] the target is T1, human myeloperoxidase (MPO) (Homo sapiens, UniProt P05164).
T1 construct: purchased Calbiochem Millipore
T1 sequence (P05164 49-745): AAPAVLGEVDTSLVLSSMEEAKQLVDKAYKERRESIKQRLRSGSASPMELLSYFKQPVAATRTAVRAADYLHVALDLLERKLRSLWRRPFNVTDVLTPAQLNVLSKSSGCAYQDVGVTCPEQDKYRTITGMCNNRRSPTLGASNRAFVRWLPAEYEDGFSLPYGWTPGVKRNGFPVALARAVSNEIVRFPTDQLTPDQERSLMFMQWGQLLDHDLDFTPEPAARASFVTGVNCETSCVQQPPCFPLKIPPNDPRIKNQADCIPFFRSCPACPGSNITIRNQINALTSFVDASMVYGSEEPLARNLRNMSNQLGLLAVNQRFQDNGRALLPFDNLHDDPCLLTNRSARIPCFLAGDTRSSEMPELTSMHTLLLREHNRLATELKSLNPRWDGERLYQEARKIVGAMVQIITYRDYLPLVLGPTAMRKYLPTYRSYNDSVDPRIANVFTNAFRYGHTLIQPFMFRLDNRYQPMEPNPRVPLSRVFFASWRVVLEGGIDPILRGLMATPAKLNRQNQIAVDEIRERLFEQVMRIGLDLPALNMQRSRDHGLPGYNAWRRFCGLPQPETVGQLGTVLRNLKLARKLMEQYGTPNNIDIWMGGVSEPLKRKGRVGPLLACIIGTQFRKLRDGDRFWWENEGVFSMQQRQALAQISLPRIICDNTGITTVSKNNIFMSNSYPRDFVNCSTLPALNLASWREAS
In words: MPO activity by SIEFED assay. Type of experiment: biochemical. As for the experimental part: Measurement of the peroxidase activity of MPO was performed by a classical enzymatic assay and by SIEFED assay as described by Nyssen et al.. The MPO solution was prepared with purified human MPO in dilution buffer (PBS 20 mM at pH 7.4 with 5 g/L BSA and 0.1% Tween-20). The solutions of EA or analogue, at final concentrations ranging from 10^−8 M to 10^−5 M, were incubated for 10 min with human MPO at a final concentration of 5 mU/mL before further use. The revelation of MPO activity was performed by monitoring the enzyme-catalyzed oxidation of Amplex Red in the presence of H2O2 (10 μM) and nitrite (4.5 mM) in phosphate buffer at pH 7.4.
Samples with MPO and various concentrations of […] were prepared and incubated as with the classical assay. An amount of 100 μL of each mixture (MPO alone or MPO + EA/DMSO) was then loaded into the wells of a SIEFED microtiter plate coated with rabbit polyclonal antibodies (3 μg/mL) against human MPO and incubated for 2 h at 37 °C in darkness. After washing up the wells, the activity of the enzyme captured by the antibodies was measured by adding 10 μL sodium nitrite solution (4.5 mM, final concentration) and 100 μL of a reactional solution containing 10 μM H2O2 and 40 μM Amplex® in phosphate buffer (50 mM) at pH 7.4. The oxidation of Amplex® Red into the fluorescent adduct resorufin (λexcitation = 544 nm; λemission = 590 nm) was monitored for 30 min at 37 °C with a fluorescent plate reader (Fluoroskan Ascent, Fisher Scientific). As for the MPO direct assay, a control assay set as the relative value of MPO activity was performed with purified MPO in the presence of PBS instead of the samples of EA or analogue dissolved in DMSO. In this SIEFED assay, MPO was bonded by the antibodies into the wells, and EA/analogue was discarded in the washing step before starting the measurement of the enzymatic activity. For both MPO assays, the inhibition percentage was calculated using a similar formula (Equation (1)) as described above.

A short description of experiment [2]: DPPH radical scavenging assay. The protocol:
The DPPH assay was performed according to the method developed by Brand-Williams et al., though slightly modified. A solution of 1 mM DPPH in absolute methanol was stirred for 40 min. Absorbance of the solution was adjusted to 0.650 ± 0.020 at 517 nm using fresh absolute methanol. For replicates, the DPPH assay was performed using a microplate reader. For this, 2 µL of EA taken as a standard or sample (EA analogue) were mixed with 198 µL of DPPH solution and incubated for 30 min in the dark covered with aluminum foil. When reacting with an antioxidant, the DPPH• radical is converted into DPPH, and its color changes from purple to yellow. The antioxidant effect may be easily evaluated by observing the decrease in visible absorption. The absorbance decrease was monitored at 510 nm for 30 min with a Multiskan Ascent 96-plate reader (ThermoLabsystem, Finland). A control consisted of 2 µL of DMSO in 198 µL of DPPH solution. A similar formula (Equation (1)) was applied to determine the DPPH radical-scavenging activity.

In experiment [3] the target is T2, Horseradish peroxidase (HRP) (Armoracia rusticana, UniProt P00433).
T2 construct: purchased Merck (Darmstadt, Germany)
T2 sequence (P00433 31-338 limits assumed): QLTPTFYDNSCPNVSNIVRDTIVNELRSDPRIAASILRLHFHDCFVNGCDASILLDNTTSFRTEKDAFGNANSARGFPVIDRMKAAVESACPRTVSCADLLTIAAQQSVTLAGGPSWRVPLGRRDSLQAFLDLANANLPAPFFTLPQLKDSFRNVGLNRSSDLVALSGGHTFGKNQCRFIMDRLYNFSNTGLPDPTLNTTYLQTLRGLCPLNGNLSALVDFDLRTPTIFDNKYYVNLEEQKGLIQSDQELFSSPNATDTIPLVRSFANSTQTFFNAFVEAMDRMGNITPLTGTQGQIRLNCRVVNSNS
In words: HRP-catalyzed oxidation of L012 (chemiluminescence). Type of experiment: biochemical. The protocol:
[…] (HRP) reacts with hydrogen peroxide (H2O2), yielding “compound I (HRP^+.-Fe (IV=O))”, which is a reactive intermediate of HRP that is able to oxidize any potential reducing agent. Briefly, 2 μL of compound or reference molecule (ellagic acid) were incubated in phosphate buffer at pH 7.4 (153 μL, 50 mM) containing 5 μL HRP (100 µg/L), 20 μL L0-12 (10^−3 M), and 20 μL H2O2 (1 mM), and the chemiluminescence was immediately measured using a Fluoroskan Ascent 96-plate reader (ThermoLabsystem, Finland) at 37 °C for 30 min [32, 34]. The analysis was conducted in a 96-well microtiter plate. All the assays were performed in triplicate and repeated at least twice (N = 2; n = 6). The relative activity in terms of inhibition percentage of the tested compound or reference (ellagic acid) was compared to a control in the presence of DMSO taken as a solvent. The inhibition percentage was calculated using a similar formula (Equation (1)) as described above.

For `CN(C)C(=O)Oc1cc2c(=O)oc3c(OC(=O)N(C)C)c(OC(=O)N(C)C)cc4c(=O)oc(c1OC(=O)N(C)C)c2c34` [compound 6, Sevellagic acid], the “MPO activity, SIEFED assay (in words)” value in experiment [1] is “weak activity or the absence of inhibition activity”. In addition, the DPPH inhibition percentage in experiment [2] (at the highest concentration) is reported as −3%. Further, in experiment [3], the “HRP inhibiting activity (in words)” value is recorded as “lack of effect”.

As to `CCOC1Oc2cc(C(=O)OC)cc(O)c2O1` (stereo not drawn) [compound 11, methyl 2-ethoxy-7-hydroxybenzo[d][1,3]dioxole-5-carboxylate], in experiment [1], the “MPO activity, SIEFED assay (in words)” value is recorded as “activator of MPO activity; also recorded: promote, rather than inhibit, MPO activity”. Moreover, the IC50 (usually the concentration needed to halve the response being measured) in experiment [2] is 5.22 ± 0.05 µM; in experiment [3], 3.55 ± 0.37 µM.
